The text below walks through data of US8598342B2, “Methods and compounds for antimicrobial intervention” (President and Fellows of Harvard College, priority 2008, dated 2013).

For experiment [1], the system named is S. aureus RN4220 invasion of human corneal epithelial cells (HCEC). Nature of the experiment: Human corneal epithelial cell (HCEC) invasion / internalization model. Type of experiment: cell-based, Staphylococcus aureus. As to conditions: wildtype S. aureus grown with 8×MIC (20 μg/mL) of targocil. As to the method:
An overnight culture of S. aureus RN4220 and its isogenic ΔtarO strain were grown with shaking at 37° C. in either 1% DMSO or in the presence of 8×MIC (20 μg/mL) of targocil 1% DMSO. Human corneal epithelial cells (HCEC) were cultured separately in 24-well plates. Prior to incubation with HCEC, the bacteria were washed twice with keratinocyte culture media—serum free (KBM-SFM) including 8×MIC of targocil in 1% DMSO or 1% DMSO. The S. aureus strains (approximately 10^8 CFU in 1 mL of KBM-SFM including either 8×MIC of targocil 1% DMSO or 1% DMSO) were then applied to the HCEC monolayers. (The initial inoculum of each group was determined by serial dilution and plate counting.) Following incubation at 37° C. for 1 h, bacteria were removed and the monolayers were washed twice with Hank's balanced salt solution (HBSS), and covered with 1 mL of KBM-SFM containing gentamycin (100 μg/mL) and incubated at 37° C. for 1 h to kill residual extracellular bacteria. The monolayers were washed twice with HBSS, lysed, and homogenized in 1 mL of lysis solution (0.25% trypsin-0.025% Triton X-100). Lysates were serially diluted and plated on brain-heart infusion agar, and colonies were enumerated following overnight incubation at 37° C.
The data workup was done by first determining the percentage of internalized bacteria compared to the initial inoculum. […]

Another experiment addresses T1, S. aureus TarL (Staphylococcus aureus, UniProt Q2G1B8).
T1 construct: made in house
T1 sequence (Q2G1B8 1-562): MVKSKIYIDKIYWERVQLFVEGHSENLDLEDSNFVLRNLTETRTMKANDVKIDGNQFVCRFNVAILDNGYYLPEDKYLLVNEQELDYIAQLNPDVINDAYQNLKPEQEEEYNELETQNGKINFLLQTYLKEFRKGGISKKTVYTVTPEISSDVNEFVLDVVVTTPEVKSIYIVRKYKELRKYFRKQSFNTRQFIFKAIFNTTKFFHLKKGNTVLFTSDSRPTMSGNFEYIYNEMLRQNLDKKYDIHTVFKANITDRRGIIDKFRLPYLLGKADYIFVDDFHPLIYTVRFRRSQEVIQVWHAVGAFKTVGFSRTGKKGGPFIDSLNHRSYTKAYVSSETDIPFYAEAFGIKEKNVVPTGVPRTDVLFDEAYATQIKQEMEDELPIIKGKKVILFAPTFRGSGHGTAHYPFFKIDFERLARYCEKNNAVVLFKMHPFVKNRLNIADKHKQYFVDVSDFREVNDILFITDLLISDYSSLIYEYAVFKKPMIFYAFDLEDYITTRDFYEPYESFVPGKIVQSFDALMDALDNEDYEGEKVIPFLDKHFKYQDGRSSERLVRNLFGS
Nature of the experiment: In vitro enzyme inhibition assay, TarL (radiometric). Type of experiment: biochemical. As to conditions: targocil 50 μg/mL; enzyme 200 nM. As to the method: (A) TarL reaction with heat-treated enzyme; (B) TarL reaction with active enzyme; (C) TarL reaction with 5 μM targocil; (D) TarL reaction with 50 μM targocil; (E) TarL reaction with 100 μM targocil.
S. aureus TarB, D, F, I, and L were cloned, overexpressed and purified as described previously (S. Brown, Y. H. Zhang, S. Walker, Chemistry & Biology 15, 12, Jan. 2008.) Radiometric in vitro assays were run to test the inhibitory effects of targocil on Tar B, D, F, and L, while TarI was assayed for targocil inhibition using an HPLC assay using conditions similar to those previously reported (ibid). See below for exact reaction conditions. […] In each case, a reaction with no targocil served as a negative control (active enzymatic reaction) and a reaction with heat-treated enzyme served as a positive control (no enzymatic reaction). Targocil was incubated with all reaction components except the substrates at room temperature. After 10 minutes, substrates were added and the reactions were allowed to proceed for 60 minutes. The reactions were quenched with DMF and the products were imaged/monitored as previously described (ibid).
TarL in vitro inhibition assay protocol and data. Each 3 μL reaction contained 1 μM [14C] (GroP)2-ManNAc-β-(1,4)-GlcNAc-pp-farnesyl, 50 μM CDP-ribitol, 20 mM Tris base pH 7.5, 100 mM NaCl, 10 mM MgCl2, 200 nM TarL and either 5, 50, or 100 μM targocil. […]

Experiment [2] has as its system S. aureus RN4220 TarG:W73C (m5). The experiment can be described thus: MIC analysis of RN4220 carrying the mutant tarG allele TarG:W73C. Format: cell-based, Staphylococcus aureus. The following applies: mutant allele exchanged into RN4220. From the text:
Therefore, we conclude that TarG is a target of targocil. […] (Davidson A L, Dassa E, Orelle C, & Chen J (2008) Microbiology and Molecular Biology Reviews 72:317-364) In addition to functioning as antibiotics, inhibitors such as targocil, and derivatives thereof, could be valuable tools for mechanistic and structural analyses of ABC transporters.

For experiment [3], the system named is strain overexpressing S. aureus TarGH. The experiment can be described thus: Growth of S. aureus RN4220 overexpressing S. aureus tarGH. Type of experiment: cell-based, Staphylococcus aureus. The following applies: 28° C., 12 h, OD600. The procedure:
(A) Targocil MIC data for a panel of Gram-positive strains, including MRSA clinical isolates B5271 and 5340A. Growth was monitored in triplicate after 12 h at 28° C. using optical density. (B) Two dimensional drug interaction analysis between tunicamycin and targocil grown for 18 h at 30° C. […] At higher concentrations, tunicamycin is toxic because it inhibits cell wall biosynthesis. […] Varying concentrations of drug were added to […] of S. aureus RN4220 after 5 h and cell count was monitored over time at 30° C. […] Cells were grown at 28° C. for 12 h and monitored for growth using optical density (OD600). Data were normalized to the DMSO controls for each strain. (E) Two classes of mutants were examined: phage resistant (m1 3) and phage sensitive (m4-5).

“Also recorded” adds a separate entry of the source.

For the compound `CCN(CC)c1nc2c(S(=O)(=O)c3ccccc3)nnn2c2ccc(Cl)cc12` [7-chloro-N,N-diethyl-3-(phenylsulfonyl)-[1,2,3]triazolo[1,5-a]quinazolin-5-amine], the “invasion of HCECs by targocil-treated bacteria” value in experiment [1] was “behaved similarly to the ΔtarO strain”. Also, the “inhibition of TarL” value on S. aureus TarL was “None of these enzymes was inhibited”. The “resistance to targocil of TarG:W73C strain” value in experiment [2] was “fully resistant; also recorded: confer resistance”. Moreover, the “resistance to targocil of strain overexpressing S. aureus TarGH” value in experiment [3] is “partially resistant; also recorded: partial resistance”.
